Laboratory results taken from patent publication US8178506B2, “Oligomeric compounds and compositions for use in modulation of small non-coding RNAs” (Regulus Therapeutics Inc., priority 2003, dated 2012).
In the oligonucleotide strings, read from the 5' end, every base follows the letter of its sugar. An asterisk marks phosphorothioate; unmarked linkages are phosphodiester. Other units and linkages are bracketed, terminal groups are in braces. A string of capitals states the bases alone. e = 2'-O-(2-methoxyethyl) (MOE); [5mC] = 5-methylcytosine; d = 2'-deoxy (DNA)

How the values were obtained:
leptin = test: Leptin secretion by adipocytes (ELISA); format: cell-based, human; conditions: adipocytes, 250 nM oligomeric compound, day nine post-transfection, relative to control (1.0); Table 16
Description: Leptin secretion into the medium in which adipocytes are cultured is measured by protein ELISA. On day nine post-transfection, 96-well plates are coated with a monoclonal antibody to human leptin (R&D Systems, Minneapolis, Minn.) and left at 4° C. overnight. The plates are blocked with bovine serum albumin (BSA), and a dilution of the treated adipoctye medium is incubated in the plate at room temperature for approximately 2 hours. After washing to remove unbound components, a second monoclonal antibody to human leptin (conjugated with biotin) is added. The plate is then incubated with strepavidin-conjugated horse radish peroxidase (HRP) and enzyme levels are determined by incubation with 3, 3′,5,5′-tetramethlybenzidine, which turns blue when cleaved by HRP. The OD450 is read for each well, where the dye absorbance is proportional to the leptin concentration in the cell lysate.
Leptin is also a marker for differentiated adipocytes. In the adipocyte assay, leptin secretion into the media above the differentiated adipocytes was measured by protein ELISA. Cell growth, transfection and differentiation procedures were carried out as described for the Triglyceride accumulation assay (see below). On day nine post-transfection, 96-well plates were coated with a monoclonal antibody to human leptin (R&D Systems, Minneapolis, Minn.) and left at 4° C. overnight. The plates were blocked with bovine serum albumin (BSA), and a dilution of the media was incubated in the plate at RT for 2 hours. After washing to remove unbound components, a second monoclonal antibody to human leptin (conjugated with biotin) was added. The plate was then incubated with strepavidin-conjugated horseradish peroxidase (HRP) and enzyme levels are determined by incubation with 3, 3′, 5,5′-Tetramethlybenzidine, which turns blue when cleaved by HRP. The OD450 was read for each well, where the dye absorbance is proportional to the leptin concentration in the cell lysate. Results are expressed as a percent±standard deviation relative to transfectant-only controls.

B16-F10 cells = test: Cell cycle assay in B16-F10 cells; format: cell-based, mouse; conditions: 150 nM, 48 hours, relative to untreated control
Description: (§1) BJ cells were routinely cultured in MEM high glucose with 2 mM L-glutamine and Earle's BSS adjusted to contain 1.5 g/L sodium bicarbonate and supplemented with 10% fetal bovine serum, 0.1 mM non-essential amino acids and 1.0 mM sodium pyruvate (all media and supplements from Invitrogen Life Technologies, Carlsbad, Calif.). B16-F10 cells were routinely cultured in DMEM high glucose (Invitrogen Life Technologies, Carlsbad, Calif.) supplemented with 10% fetal bovine serum (Invitrogen Life Technologies, Carlsbad, Calif.). T47D cells were cultured in DMEM High glucose media (Invitrogen Life Technologies, Carlsbad, Calif.) supplemented with 10% fetal bovine serum. […] Cells were plated on collagen-coated 24-well plates (Falcon-Primaria #3047, BD Biosciences, Bedford, Mass.) at approximately 50,000 cells per well and allowed to attach to wells overnight.
(§2) In further studies, additional cell lines were treated with oligomeric compounds targeted against miRNAs to assess the effects of each oligomeric compound on cell cycling. BJ, B16, T47D, and HeLa cells were cultured and transfected as described above. […] T47Dp53 cells are T47D cells that have been transfected with and selected for maintenance of a plasmid that expresses a wildtype copy of the p53 gene (for example, pCMV-p53; Clontech, Palo Alto, Calif.), using standard laboratory procedures. BJ cells were treated with 200 nM of each oligomeric compound, and T47D, T47Dp53, HeLa, and B16 cells were treated with 150 nM of each oligomeric compound. The human foreskin fibroblast BJ cell line represents a non-cancer cell line, while HeLa, T47D, T47Dp53 cells and the mouse melanoma cell line B16-F10 represent cancerous cell lines. For comparison, oligomeric compounds ISIS 183891 (SEQ ID NO: 847) and ISIS 285717 ([…]; herein incorporated as SEQ ID NO: 857), both targeting the kinesin-like 1/Eg5 mRNA, involved in cell cycling, were used as positive controls. The random-mer ISIS 29848 was used as a negative control. Additionally, the oligomeric compounds ISIS Number 25690 ([…]; herein incorporated as SEQ ID NO: 858) and ISIS Number 25691 ([…]; herein incorporated as SEQ ID NO: 859), targeted to nucleotides 3051-3070 and 3085-3104, respectively, of the mRNA encoding the Drosha RNase III (GenBank Accession NM_013235.2, incorporated herein as SEQ ID NO: 860) were also tested. ISIS Number 25690 and ISIS Number 25691 are 5-10-52′-MOE gapmer compounds, 20 nucleotides in length, with phosphorothioate internucleoside linkages throughout the oligomeric compound. All cytidine residues are 5-methylcytidines. Transfections were performed using the methods described herein. Cells were prepared for flow cytometry 48-hours after oligonucleotide treatment. Results of these studies are shown in Table 35, where data are expressed as percentage of cells in each phase relative to the untreated control cells in that phase.

BJ cells = test: Cell cycle assay in BJ cells; format: cell-based, human; conditions: 200 nM, 48 hours, relative to untreated control
Description: as §1, §2

DIO mice = test: Diet-induced obesity (DIO) mice; format: in vivo; conditions: 25 mg/kg s.c. twice weekly, 25 mg/kg
Description: As described, supra, the C57BL/6 mouse strain is reported to be susceptible to hyperlipidemia-induced atherosclerotic plaque formation, and when these mice are fed a high-fat diet, they develop diet-induced obesity (DIO). Accordingly, the DIO mouse model is useful for the investigation of obesity and development of agents designed to treat these conditions. In one embodiment of the present invention, oligomeric compounds targeting miRNAs were tested in the DIO model. Normal C57/BL6 male mice were fed a high fat diet (40% fat, 41% carbohydrate, 18% protein) for 12 weeks before the study began. DIO mice were then randomized by weight and insulin values. Initial body fat composition was determined by Dual X-ray Absorptiometry (DEXA) Scan. DIO mice were then subcutaneously injected with oligomeric compounds of the invention at a dose of 25 mg/kg, twice weekly. DIO mice were treated with oligomeric compounds ISIS Numbers 327901 and 340927 targeting mir-143, ISIS Numbers 327892 and 340926 targeting mir-131/mir-9, ISIS Numbers 327878 and ISIS Number 345349 targeting mir-203, and ISIS Numbers 327889 and 340925, targeting mir-23b. […] DEXA scans were also performed at weeks 0, 3 and 5 after treatment with the oligomeric compounds to assess the fat mass to lean mass ratio. The effects of target inhibition on levels of plasma glucose and insulin, liver transaminases, cholesterol and triglycerides, were also assessed weekly by tail bleed, and after the treatment period, mice were sacrificed and liver and kidney heart, as well as white adipose tissue (WAT) tissues collected. The mRNA expression levels of the Glut4, aP2, HSL and PPARγ marker genes are also assessed. […] Furthermore, some improvement in body composition (a reduction in body weight and fat mass) was observed.

“327888 (antisense eA*eA*eT*eG*e[5mC]*e[5mC]*e[5mC]*e[5mC]*eT*eA*eA*eA*eA*eA*eT*e[5mC]*e[5mC]*eT*eT*eA*eT) [compound 327888]” was tested, and the “Leptin (secretion)” value (leptin) was 1.38.
With “327889 (antisense eG*eT*eG*eG*eT*eA*eA*eT*e[5mC]*e[5mC]*e[5mC]*eT*eG*eG*e[5mC]*eA*eA*eT*eG*eT*eG*eA*eT) [compound 327889]” the “Leptin (secretion)” value (leptin) was 1.05.
In the case of “327890 (antisense eA*eG*e[5mC]*eA*e[5mC]*eA*eA*eA*e[5mC]*eT*eA*e[5mC]*eT*eA*e[5mC]*e[5mC]*eT*e[5mC]*eA) [compound 327890]”, the “Leptin (secretion)” value (leptin) is reported as 1.36.
In the case of “327893 (antisense eA*eA*e[5mC]*e[5mC]*eA*e[5mC]*eA*e[5mC]*eA*eA*e[5mC]*e[5mC]*eT*eA*e[5mC]*eT*eA*e[5mC]*e[5mC]*eT*e[5mC]*eA) [compound 327893]”, the “Leptin (secretion)” value (leptin) is reported as 1.14.
“327901 (antisense eT*eG*eA*eG*e[5mC]*eT*eA*e[5mC]*eA*eG*eT*eG*e[5mC]*eT*eT*e[5mC]*eA*eT*e[5mC]*eT*e[5mC]*eA) [compound 327901]” was tested, and the “Leptin (secretion)” value (leptin) was 1.02.
For “327902 (antisense eG*eG*e[5mC]*eT*eG*eT*e[5mC]*eA*eA*eT*eT*e[5mC]*eA*eT*eA*eG*eG*eT*e[5mC]*eA*eG) [compound 327902]”, the “% cells in cell cycle phase G1” value (B16-F10 cells) was 112%, the “% cells in cell cycle phase G2/M” value (B16-F10 cells) was 98% and the “% cells in cell cycle phase S” value (B16-F10 cells) was 88%. The “% cells in cell cycle phase aneuploid” value (B16-F10 cells) was 101%, the “% cells in cell cycle phase subG1” value (B16-F10 cells) was 151% and the “% cells in cell cycle phase G1” value (BJ cells) was 99%. The “% cells in cell cycle phase G2/M” value (BJ cells) was 108%, the “% cells in cell cycle phase S” value (BJ cells) was 88% and the “% cells in cell cycle phase aneuploid” value (BJ cells) was 82%. For the same substance, the “% cells in cell cycle phase subG1” value (BJ cells) was 91%.
“327903 (antisense eA*eA*e[5mC]*eT*eA*eT*eA*e[5mC]*eA*eA*e[5mC]*e[5mC]*eT*eA*e[5mC]*eT*eA*e[5mC]*e[5mC]*eT*e[5mC]*eA) [compound 327903]” was tested, and the “Leptin (secretion)” value (leptin) was 1.61.
With “327905 (antisense e[5mC]*eA*eG*eA*e[5mC]*eT*e[5mC]*e[5mC]*eG*eG*eT*eG*eG*eA*eA*eT*eG*eA*eA*eG*eG*eA) [compound 327905]” the “Leptin (secretion)” value (leptin) was 1.62, the “% cells in cell cycle phase G1” value (B16-F10 cells) was 107% and the “% cells in cell cycle phase G2/M” value (B16-F10 cells) was 106%. The “% cells in cell cycle phase S” value (B16-F10 cells) was 89%, the “% cells in cell cycle phase aneuploid” value (B16-F10 cells) was 94% and the “% cells in cell cycle phase subG1” value (B16-F10 cells) was 142%. For the same substance, the “% cells in cell cycle phase G1” value (BJ cells) was 100%, the “% cells in cell cycle phase G2/M” value (BJ cells) was 109% and the “% cells in cell cycle phase S” value (BJ cells) was 77%. For the same substance, the “% cells in cell cycle phase aneuploid” value (BJ cells) was 102% and the “% cells in cell cycle phase subG1” value (BJ cells) was 105%.
With “327919 (antisense eG*eA*eA*eA*e[5mC]*e[5mC]*e[5mC]*eA*eG*e[5mC]*eA*eG*eA*e[5mC]*eA*eA*eT*eG*eT*eA*eG*e[5mC]*eT) [compound 327919]” the “Leptin (secretion)” value (leptin) was 1.44.
In the case of “327922 (antisense eT*e[5mC]*eA*eG*eT*eT*eT*eT*eG*e[5mC]*eA*eT*eG*eG*eA*eT*eT*eT*eG*e[5mC]*eA*e[5mC]*eA) [compound 327922]”, the “Leptin (secretion)” value (leptin) is reported as 1.25.
For “327925 (antisense eT*eA*eG*e[5mC]*eT*eG*eG*eT*eT*eG*eA*eA*eG*eG*eG*eG*eA*e[5mC]*e[5mC]*eA*eA) [compound 327925]”, the “Leptin (secretion)” value (leptin) was 1.40.
In the case of “327931 (antisense eA*eA*e[5mC]*e[5mC]*eA*eT*eA*e[5mC]*eA*eA*e[5mC]*e[5mC]*eT*eA*e[5mC]*eT*eA*e[5mC]*e[5mC]*eT*e[5mC]*eA) [compound 327931]”, the “Leptin (secretion)” value (leptin) is reported as 1.12.
In the case of “327933 (antisense eA*eA*eG*eG*eG*eA*eT*eT*e[5mC]*e[5mC]*eT*eG*eG*eG*eA*eA*eA*eA*e[5mC]*eT*eG*eG*eA*e[5mC]) [compound 327933]”, the “% cells in cell cycle phase G1” value (B16-F10 cells) is reported as 109%, the “% cells in cell cycle phase G2/M” value (B16-F10 cells) is reported as 116% and the “% cells in cell cycle phase S” value (B16-F10 cells) is reported as 84%. The “% cells in cell cycle phase aneuploid” value (B16-F10 cells) was 130% and the “% cells in cell cycle phase subG1” value (B16-F10 cells) was 104%.
In the case of “327934 (antisense eG*eG*eT*eA*e[5mC]*eA*eA*eT*e[5mC]*eA*eA*e[5mC]*eG*eG*eT*e[5mC]*eG*eA*eT*eG*eG*eT) [compound 327934]”, the “Leptin (secretion)” value (leptin) is reported as 1.25.
For “327941 (antisense eA*eA*e[5mC]*e[5mC]*e[5mC]*eA*e[5mC]*e[5mC]*eG*eA*e[5mC]*eA*eG*e[5mC]*eA*eA*eT*eG*eA*eA*eT*eG*eT*eT) [compound 327941]”, the “Leptin (secretion)” value (leptin) was 0.54.
In the case of “327967 (antisense eA*e[5mC]*eT*eG*eT*eA*e[5mC]*eA*eA*eA*e[5mC]*eT*eA*e[5mC]*eT*eA*e[5mC]*e[5mC]*eT*e[5mC]*eA) [compound 327967]”, the “Leptin (secretion)” value (leptin) is reported as 1.22.
In the case of “328759 (antisense eG*eA*eG*eG*eG*dA*dT*dT*dG*dT*dA*dT*dG*dA*dA*e[5mC]*eA*eT*e[5mC]*eT) [compound 328759]”, the “% cells in cell cycle phase G1” value (B16-F10 cells) is reported as 104%, the “% cells in cell cycle phase G2/M” value (B16-F10 cells) is reported as 110% and the “% cells in cell cycle phase S” value (B16-F10 cells) is reported as 91%. The “% cells in cell cycle phase aneuploid” value (B16-F10 cells) was 126%, the “% cells in cell cycle phase subG1” value (B16-F10 cells) was 132% and the “% cells in cell cycle phase G1” value (BJ cells) was 91%. The “% cells in cell cycle phase G2/M” value (BJ cells) was 141%, the “% cells in cell cycle phase S” value (BJ cells) was 117% and the “% cells in cell cycle phase aneuploid” value (BJ cells) was 160%. The “% cells in cell cycle phase subG1” value (BJ cells) was 164%.
With “ACTTTCGGTTATCTAGCTTTA [ISIS 327892] (chemistry not given here) [uniform 2′-MOE PS; targets mir-131-2/mir-9]” the “liver toxicity (plasma transaminase levels, weekly)” value (DIO mice) was “did not appear to cause liver toxicity”.
“TGAGCTACAGTGCTTCATCTCA [ISIS 327901] (chemistry not given here) [uniform 2′-MOE PS; targets mir-143]” was tested, and the “liver toxicity (plasma transaminase levels, weekly)” value (DIO mice) was “did not appear to cause liver toxicity”.
